We go through two compounds from ChEMBL document CHEMBL1158670, “Mediation of the cytotoxicity of lanostanoids and steroids of Ganoderma tsugae through apoptosis and cell cycle” (J Nat Prod, 1998).

A short description of assay [1]: Cell cycle arrest in human Hep3B cells by accumulation at subG1 phase at 24 ug/mL after 24 hrs by flow cytometry. Type of assay: functional, cell-based. The following applies: Hep 3B2. In general terms: In flow cytometry, cells or beads pass a laser one at a time.
Assay [2] can be described thus: Cell cycle arrest in human Hep3B cells by accumulation at G0/G1 phase at 35 ug/mL after 24 hrs by flow cytometry. Type of assay: functional, cell-based. As to conditions: Hep 3B2.
A short description of assay [3]: Cell cycle arrest in human Hep3B cells by accumulation at G2/M phase at 50 ug/mL after 24 hrs by flow cytometry. It counts as functional, cell-based. As to conditions: Hep 3B2.
Assay [4] in a line: Cell cycle arrest in human Hep3B cells by accumulation at G2/M phase at 20 ug/mL after 24 hrs by flow cytometry. As to conditions: Hep 3B2. It counts as functional, cell-based.
Assay [5] in a line: Cell cycle arrest in human Hep3B cells by accumulation at G2/M phase after 24 hrs by flow cytometry. It counts as functional, cell-based, Hep 3B2.
Assay [6] is described as follows: Cell cycle arrest in human Hep3B cells by accumulation at G0/G1 phase at 100 ug/mL after 24 hrs by flow cytometry. As to conditions: Hep 3B2. It counts as functional, cell-based.
Assay [7] is described as follows: Cell cycle arrest in human Hep3B cells by accumulation at G2/M phase at 100 ug/mL after 24 hrs by flow cytometry. It counts as functional, cell-based. The following applies: Hep 3B2.
The nature of assay [8]: Cell cycle arrest in human Hep3B cells by accumulation at S phase at 20 ug/mL after 24 hrs by flow cytometry. Type of assay: functional, cell-based. The following applies: Hep 3B2.
Assay [9] in a line: Cell cycle arrest in human Hep3B cells by accumulation at G0/G1 phase at 50 ug/mL after 24 hrs by flow cytometry. It counts as functional, cell-based. As to conditions: Hep 3B2.
The nature of assay [10]: Cell cycle arrest in human Hep3B cells by accumulation at S phase at 35 ug/mL after 24 hrs by flow cytometry. It counts as functional, cell-based. The following applies: Hep 3B2.
Assay [11] in a line: Cell cycle arrest in human Hep3B cells by accumulation at G0/G1 phase at 20 ug/mL after 24 hrs by flow cytometry. Type of assay: functional, cell-based. The following applies: Hep 3B2.
Assay [12] in a line: Cell cycle arrest in human Hep3B cells by accumulation at S phase at 50 ug/mL after 24 hrs by flow cytometry. Type of assay: functional, cell-based. As to conditions: Hep 3B2.
Assay [13] in a line: Cell cycle arrest in human Hep3B cells by accumulation at S phase at 100 ug/mL after 24 hrs by flow cytometry. It counts as functional, cell-based. As to conditions: Hep 3B2.
Assay [14] in a line: Cell cycle arrest in human Hep3B cells by accumulation at G2/M phase at 35 ug/mL after 24 hrs by flow cytometry. It counts as functional, cell-based. The following applies: Hep 3B2.

Values after ≈ are worked out from the molar mass of the structure shown. Active and inactive are the calls of the source. No cut-off for these calls is given here.

In general, IC50 refers to the concentration needed to halve the response being measured.

As for `CC(=O)O[C@@H]1CC[C@]2(C)C3=C(CC[C@H]2C1(C)C)[C@]1(C)CC[C@H]([C@@H](CCC=C(C)C)C(=O)O[C@@H]2O[C@H](CO)[C@@H](O)[C@H](O)[C@H]2O)[C@@]1(C)CC3`, the result in assay [1] was Active.

In the case of `CC(C)[C@@H](C)/C=C/[C@@H](C)[C@H]1CC[C@H]2C3=CC[C@H]4C[C@H](O)[C@@H](O)C[C@]4(C)[C@@]3(O)CC[C@]12C`, the Activity stood at 55.3% in assay [2]; 9.2% in assay [3]; 12.6% in [4]; 57.8% in assay [6]; 5.2% in assay [7]; 36.8% in assay [8]. Further, the Activity in [9] came to 55.3%; in assay [10], 35%; in assay [11], 50.6%; in assay [12], 35.5%; in [13] it was 37%; in [14], 9.8%. In assay [5], this compound returned an IC50 of 87.1 µg/mL (≈ 202 µM).
